Assay results: publication PMC8928484 (Journal of the American Chemical Society, 2022)
Where two headings read alike, the source gives them in different places.

Key:
FEM1B [1] = molecular target: T1, FEM1B (Mus musculus, UniProt Q9Z2G0); assay: competitive fluorescence polarization with TAMRA-FNIP1 degron; assay type: binding
FEM1B [2] = molecular target: T1, FEM1B; assay: as above; assay type: binding; remark: listed apart in the source

T1 sequence (Q9Z2G0 whole entry): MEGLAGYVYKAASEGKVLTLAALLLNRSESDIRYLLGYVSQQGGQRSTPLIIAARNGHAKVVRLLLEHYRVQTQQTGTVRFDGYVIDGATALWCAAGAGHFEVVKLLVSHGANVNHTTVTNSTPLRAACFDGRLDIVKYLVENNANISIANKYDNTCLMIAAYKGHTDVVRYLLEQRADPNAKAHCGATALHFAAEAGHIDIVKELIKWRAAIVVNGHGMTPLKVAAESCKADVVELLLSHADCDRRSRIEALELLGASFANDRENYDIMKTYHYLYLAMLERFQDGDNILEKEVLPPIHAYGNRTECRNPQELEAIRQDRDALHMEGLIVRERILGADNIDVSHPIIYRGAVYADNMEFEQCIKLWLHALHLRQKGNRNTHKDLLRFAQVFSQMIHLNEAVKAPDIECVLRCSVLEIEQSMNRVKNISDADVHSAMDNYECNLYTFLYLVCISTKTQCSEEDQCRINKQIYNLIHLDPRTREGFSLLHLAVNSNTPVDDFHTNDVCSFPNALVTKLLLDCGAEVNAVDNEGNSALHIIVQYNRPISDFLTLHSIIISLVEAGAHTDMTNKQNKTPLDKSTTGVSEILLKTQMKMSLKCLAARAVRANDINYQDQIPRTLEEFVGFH

| IC50 (FEM1B [1]) | IC50 (FEM1B [2]) | Molecule |
| --- | --- | --- |
| 1.5 µM |  | NJH-1-106 |
|  | 0.67 µM | C#CCCCC(=O)N1CCOc2cc(N(CCC#N)C(=O)CCl)ccc21 [NJH-2-030] |
